Test results from US20120270945A1, “METHOD FOR MODULATING CYTOKINE ACTIVITY” (SUCAMPO AG, priority 2011, published 2012).

Legend:
IL-1beta = IL-1beta mRNA expression in intestinal tissue of DSS-induced ulcerative colitis rats (real-time PCR); type: in vivo, rat
Procedure: (§1) Male LEW/SsN rats were given free access to 3% dextran sulfate sodium (DSS) in drinking water to induce ulcerative colitis. (−)-7-{(2R,4aR,5R,/aR)-2-[(3S)-1,1-difluoro-3-methylpentyl]-2-hydroxy-6-oxooctahydrocyclopenta[b]pyran-5-yl}heptanoic acid (Compound A) was orally administered to the animals twice a day for 10 days. The same amount of the vehicle was administered to control animals. At the 10 days after start of 3% DSS drinking, animals were sacrificed and intestinal tissues were excised. The mRNA expressions of IL-12, IL-1beta, IL-6, and TNF-alpha in the intestinal tissues were measured by real-time polymerase chain reaction technique.
(§2) Each value is relative to the reference gene (GAPDH) level. Data are represented as mean (Arbitrary unit) from 3 to 4 animals.

TNF-alpha = TNF-alpha mRNA expression in intestinal tissue of DSS-induced ulcerative colitis rats (real-time PCR); type: in vivo, rat
Procedure: as §1, §2

[1] = Incidence of esophagitis in patients who take NSAIDs (naproxen); type: in vivo, human; settings: patients on 500 mg naproxen twice a day
Procedure: Patients who take NSAIDs were randomized to one of four treatment groups. All patients received 500 mg of naproxen twice a day. One group received placebo while the other three groups received 18, 36 or 54 mcg of Compound A, respectively, for 12 weeks. The incidence of esophagitis was 10.0%, 6.5% or 6.5% for the groups received 18, 36 or 54 mcg of Compound A, respectively, while it was 20.0% for the group received placebo.

IL-6 = IL-6 mRNA expression in intestinal tissue of DSS-induced ulcerative colitis rats (real-time PCR); type: in vivo, rat
Procedure: as §1, §2

IL-12 = IL-12 mRNA expression in intestinal tissue of DSS-induced ulcerative colitis rats (real-time PCR); type: in vivo, rat
Procedure: as §1, §2

SOCS-1 = SOCS-1 expression in colon of DSS-induced colitis model mice (real-time PCR); type: in vivo, mouse; settings: C57/B6J mice, 2% DSS for 7 days, 10 μM solution orally once daily for 7 days, GAPDH as reference
Procedure: The experimental model used C57/B6J mice (7-8 weeks old). Colitis was induced by administration of 2% dextran sulfate sodium (DSS) in drinking water for 7 days. Ten (10) μM solution of Compound B ((−)-7-[(2R,4aR,5R,7aR)-2-(1,1-difluoropentyl)-2-hydroxy-6-oxooctahydrocyclopenta[b]pyran-5-yl]heptanoic acid) was administered orally once daily for 7 days from the day of starting DSS treatment. One day after last administration, animals were sacrificed and colons were excised. After extraction of mRNA from colon tissues, real-time PCR analysis of SOCS-1 was conducted using house-keeping gene GAPDH as a reference.

[2] = DSS-induced ulcerative colitis model rats, versus vehicle control
[3] = male LEW/SsN rats, 3% DSS drinking water, oral twice a day for 10 days, intestinal tissue, mean from 3 to 4 animals

Compound	effect on expression of IL-1beta increased by DSS (in words) (IL-1beta; [2])	expression of IL-1beta (mRNA, relative to GAPDH) (IL-1beta; [3]) [Arbitrary unit]	effect on expression of TNF-alpha increased by DSS (in words) (TNF-alpha; [2])	expression of TNF-alpha (mRNA, relative to GAPDH) (TNF-alpha; [3]) [Arbitrary unit]	incidence of esophagitis ([1]; 18 mcg for 12 weeks (placebo 20.0%)) [%]	incidence of esophagitis ([1]; 36 mcg for 12 weeks (placebo 20.0%)) [%]	incidence of esophagitis ([1]; 54 mcg for 12 weeks (placebo 20.0%)) [%]	effect on expression of IL-6 increased by DSS (in words) (IL-6; [2])	expression of IL-6 (mRNA, relative to GAPDH) (IL-6; [3]) [Arbitrary unit]	effect on expression of IL-12 increased by DSS (in words) (IL-12; [2])	expression of IL-12 (mRNA, relative to GAPDH) (IL-12; [3]) [Arbitrary unit]	effect on overexpression of SOCS-1 gene (in words) (SOCS-1)
CC[C@H](C)CC(F)(F)[C@@]1(O)CC[C@H]2[C@@H](CC(=O)[C@@H]2CCCCCCC(=O)O)O1 [Compound A, (−)-7-{(2R,4aR,5R,/aR)-2-[(3S)-1,1-difluoro-3-methylpentyl]-2-hydroxy-6-oxooctahydrocyclopenta[b]pyran-5-yl}heptanoic acid]	reduced	54.83	reduced	4.68	10.0	6.5	6.5	reduced	49.25	reduced	0.99	–
CCCCC(F)(F)[C@@]1(O)CC[C@H]2[C@@H](CC(=O)[C@@H]2CCCCCCC(=O)O)O1 [Compound B, (−)-7-[(2R,4aR,5R,7aR)-2-(1,1-difluoropentyl)-2-hydroxy-6-oxooctahydrocyclopenta[b]pyran-5-yl]heptanoic acid]	–	–	–	–	–	–	–	–	–	–	–	reduced
